Experimental data: patent US20140357713A1, “ANTIMICROBIAL COMPOUNDS AND METHODS OF USE” (NexMed Holdings, Inc., priority 2012, published 2014)
Converted amounts (≈) assume the structure as drawn.

Assays:
[1] = pH (Table 1); format: physicochemical
[2] = test system: Escherichia coli (ATCC 25922); test: Minimum inhibitory concentration (MIC) assay, Example 33; format: cell-based; conditions: for MIC: Table 19 summary of Example 33 and Example 35
Procedure: (§1) Thirty compounds were tested for antimicrobial activity using standard procedures and standard strains for both the minimum inhibitory concentration (MIC) assay and a time kill study. Both the MIC assay and the time kill study were performed according to Clinical and Laboratory Standards Institute (CLSI) guidelines. Three bacteria strains, Escherichia coli (ATCC 25922), Pseudomonas aeruginosa (ATCC 27853), Staphulococcus aureus (ATCC 29213), and two fungus strains, Candida albicans (ATCC 90029) and Aspergillus niger (CMCC 98003), were used in the experiments.
(§2) Preparation of cultures. Before the experiment, two days for the bacteria strains and five days for fungus strains, an aliquot was removed from the cultures frozen at −80° C. Medium was added to the surface of an appropriate agar plate and streaked with the aliquot. The plate was incubated for 20 to 24 hrs at 35±2° C. for bacteria or for 5 days at 26-30° C. in incubator for fungus. From the resulting growth on each plate, one isolated colony of similar morphology was selected and re-streaked onto a fresh agar plate using a sterile disposable loop. The plate was incubated 20 to 24 hrs at 35±2° C. or for 5 days at 26-30° C. in an incubator.
(§3) Preparation of Assay Plates with Medium and Drugs. On the day of the assay, CAMHB medium or RPMI 1640 medium was removed from 4′C storage and allowed to reach room temperature. Ninety microliters (μL) of room temperature CAMHB or RPMI 1640 (supplemented with the appropriate concentration of DMSO, if required) were added to rows B-G of each 96-well microtiter plate. Using a pipette, duplicate 180 μL aliquots of each drug stock solution were added to column 1 (e.g. A1 and B1 or C1 and D1 or E1 and F1 or G1 and H1). Using a multichannel pipette or the Provision 2000 liquid handler, serial 2-fold dilutions (90 μL) were performed in each row across the plate to row G. Eighty μL of compounds dilutions were transferred to a 96-deep well plate. Medium, 1,520 μL of CAMHB or RPMI 1640, was added to each well. The contents of the wells were mixed thoroughly. A 50 μL aliquot of each of the resulting mixtures was transferred to a 96-well assay plate.
(§4) For bacteria, a sterile inoculating loop was used to transfer growth from an agar plate culture into about 5 mL of test medium. Using a turbidity meter, this inoculum was adjusted so that its density (600 nm) was equivalent to a 0.5 McFarland barium sulfate standard (0.08-0.13). The resulting suspension was diluted 1:100 into medium to obtain two times test inoculums.
(§5) For Aspergillus niger, sporulating colonies were covered with RPMI 1640, and a suspension was prepared by gently probing the colonies with the tip of a transfer pipette. The suspension was transferred to a sterile tube and mixed with a vortex mixer for 15 seconds. The densities at 530 nm were adjusted to 0.09-0.13 for each sample. The resulting suspension was diluted 1:50 with the medium to obtain two times test inoculums. Fifty μL/well of this inoculum suspension was added to wells of drug-containing plates (1:2 dilution). Plates were incubated at 35° C. for the appropriate times. The MIC was read and recorded according to CLSI guidelines.
(§6) The MIC values for thirty compounds against Escherichia coli, Pseudomonas aeruginosa, Staphulococcus aureus, Candida albicans, and Aspergillus niger were recorded and are presented in Table 3 and Table 4.

[3] = test system: Pseudomonas aeruginosa (ATCC 27853); test: as above; format: cell-based; conditions: for MIC: Table 19 summary
Procedure: as §1, §2, §3, §4, §5, §6

[4] = test system: Candida albicans (ATCC 90029); test: as above; format: cell-based; conditions: for MIC: Table 19 summary
Procedure: as §1, §2, §3
For Candida albicans, a sterile inoculating loop was used to transfer growth from an agar plate culture into a tube with RPMI1640 medium. This inoculum was adjusted so that its density at 530 nm was in the ranges from 0.08 to 0.13. The resulting suspension was diluted 1:50 and further diluted 1:20 with the medium to obtain two times test inoculums.
as §5, §6

[5] = test system: Staphulococcus aureus (ATCC 29213); test: as above; format: cell-based, Staphylococcus aureus; conditions: for MIC: Table 19 summary
Procedure: as §1, §2, §3, §4, §5, §6

[6] = test system: Aspergillus niger (CMCC 98003); test: as above; format: cell-based; conditions: for MIC: Table 19 summary
Procedure: as §1, §2, §3, §5, §6

[7] = test system: Escherichia coli (ATCC 25922); test: Time kill study, Example 33 (0 to 5 min); format: cell-based; conditions: 1×MIC
Procedure: as §1
(§7) The viable counts in Log10 CFU/mL at each time point were recorded.
(§8) Time kill studies. Strain suspensions were prepared as described above for the MIC test, and strain suspensions and compound solutions were mixed in the same volume. Samples were removed at specified times including 0 min, 30 sec, 1 min and 5 mins, were diluted in the test medium and streaked on agar. Colonies were counted after 24 to 48 hrs of incubation. […]

[8] = test system: Pseudomonas aeruginosa (ATCC 27853); test: Time kill study, Example 33 (0 to 5 min); format: cell-based; conditions: 1×MIC
Procedure: as §1, §7, §8

[9] = test system: Staphylococcus aureus (ATCC 29213); test: Time kill study, Example 33 (0 to 5 min); format: cell-based; conditions: 1×MIC
Procedure: as §1, §7, §8

| Compound | pH [1] | MIC [2] | MIC E. coli ([2]; n = 1) | MIC E. coli ([2]; n = 2) | MIC [3] | MIC P. aeruginosa ([3]; n = 1) | MIC P. aeruginosa ([3]; n = 2) | MIC [4] | MIC Candida albicans ([4]; n = 1) | MIC Candida albicans ([4]; n = 2) | MIC [5] | MIC S. aureus ([5]; n = 1) | MIC S. aureus ([5]; n = 2) | MIC [6] | MIC Aspergillus niger ([6]; n = 1) | MIC Aspergillus niger ([6]; n = 2) | Viable counts, Escherichia coli time kill study ([7]; 0.5 min) | Viable counts, Escherichia coli time kill study ([7]; 1 min) | Viable counts, Escherichia coli time kill study ([7]; 5 min) | Viable counts, Escherichia coli time kill study ([7]; time 0) | further results |
| --- | --- | --- | --- | --- | --- | --- | --- | --- | --- | --- | --- | --- | --- | --- | --- | --- | --- | --- | --- | --- | --- |
| CCCCCCCCCCCCOC(=O)C(C)N(C)C.CCCCCCCCCCCCOC(=O)C(C)N(C)C.O=S(=O)(O)c1cccc2c(S(=O)(=O)O)cccc12 (stereo not shown) [Nex-32, Dodecyl 2-(dimethylamino)propanoate heminaphthalene-1,5-disulfonate] | 3.87 | 3130 µg/mL | 3130 µg/mL | 3130 µg/mL | 6250 µg/mL | 6250 µg/mL | 6250 µg/mL | >12500 µg/mL | >12500 µg/mL | >12500 µg/mL | 1560 µg/mL | 1560 µg/mL | 1560 µg/mL | >12500 µg/mL | >12500 µg/mL | >12500 µg/mL | 5.77 Log10 CFU/mL | 4.7 Log10 CFU/mL | <3.52 Log10 CFU/mL | 6.05 Log10 CFU/mL | Viable counts, Pseudomonas aeruginosa time kill study ([8]; 0.5 min): 5.62 Log10 CFU/mL; Viable counts, Pseudomonas aeruginosa time kill study ([8]; 1 min): 4.48 Log10 CFU/mL; Viable counts, Pseudomonas aeruginosa time kill study ([8]; 5 min): 4.12 Log10 CFU/mL; Viable counts, Pseudomonas aeruginosa time kill study ([8]; time 0): 5.73 Log10 CFU/mL; Viable counts, Staphylococcus aureus time kill study ([9]; 0.5 min): 6.31 Log10 CFU/mL; Viable counts, Staphylococcus aureus time kill study ([9]; 1 min): 6.23 Log10 CFU/mL; Viable counts, Staphylococcus aureus time kill study ([9]; 5 min): 6.2 Log10 CFU/mL; Viable counts, Staphylococcus aureus time kill study ([9]; time 0): 6.25 Log10 CFU/mL |
| CCCCCCCCCCCCOC(=O)C(C)N(C)C (stereo not shown) [Nex-46, Dodecyl 2-(dimethylamino)propanoate 2-hydroxyethanesulfonate] | 2.95 | 3130 µg/mL (≈ 11 mM) | 3130 µg/mL (≈ 11 mM) | 3130 µg/mL (≈ 11 mM) | 6250 µg/mL (≈ 21.9 mM) | 6250 µg/mL (≈ 21.9 mM) | 6250 µg/mL (≈ 21.9 mM) | >12500 µg/mL | >12500 µg/mL | >12500 µg/mL | 3130 µg/mL (≈ 11 mM) | 3130 µg/mL (≈ 11 mM) | 3130 µg/mL (≈ 11 mM) | >12500 µg/mL | >12500 µg/mL | >12500 µg/mL | 5.74 Log10 CFU/mL | 5.91 Log10 CFU/mL | 3.97 Log10 CFU/mL | 5.87 Log10 CFU/mL | Viable counts, Pseudomonas aeruginosa time kill study ([8]; 0.5 min): 4.48 Log10 CFU/mL; Viable counts, Pseudomonas aeruginosa time kill study ([8]; 1 min): 3.7 Log10 CFU/mL; Viable counts, Pseudomonas aeruginosa time kill study ([8]; 5 min): <3.52 Log10 CFU/mL; Viable counts, Pseudomonas aeruginosa time kill study ([8]; time 0): 5.67 Log10 CFU/mL; Viable counts, Staphylococcus aureus time kill study ([9]; 0.5 min): 6.25 Log10 CFU/mL; Viable counts, Staphylococcus aureus time kill study ([9]; 1 min): 6.21 Log10 CFU/mL; Viable counts, Staphylococcus aureus time kill study ([9]; 5 min): 6.21 Log10 CFU/mL; Viable counts, Staphylococcus aureus time kill study ([9]; time 0): 6.26 Log10 CFU/mL |
| CCCCCCCCCCCCOC(=O)[C@@H](C)N(C)C.Cl [Nex-56, D-Dodecyl 2-(dimethylamino)propanoate hydrochloride] | 1.70 | 3130 µg/mL | 3130 µg/mL | 3130 µg/mL | 6250 µg/mL | 6250 µg/mL | 6250 µg/mL | >12500 µg/mL | >12500 µg/mL | >12500 µg/mL | 3130 µg/mL | 3130 µg/mL | 3130 µg/mL | >12500 µg/mL | >12500 µg/mL | >12500 µg/mL | <4.0 Log10 CFU/mL | <3.70 Log10 CFU/mL | <3.52 Log10 CFU/mL | 5.92 Log10 CFU/mL | Viable counts, Pseudomonas aeruginosa time kill study ([8]; 0.5 min): <4.0 Log10 CFU/mL; Viable counts, Pseudomonas aeruginosa time kill study ([8]; 1 min): <3.70 Log10 CFU/mL; Viable counts, Pseudomonas aeruginosa time kill study ([8]; 5 min): <3.52 Log10 CFU/mL; Viable counts, Pseudomonas aeruginosa time kill study ([8]; time 0): 5.56 Log10 CFU/mL; Viable counts, Staphylococcus aureus time kill study ([9]; 0.5 min): 6.27 Log10 CFU/mL; Viable counts, Staphylococcus aureus time kill study ([9]; 1 min): 6.16 Log10 CFU/mL; Viable counts, Staphylococcus aureus time kill study ([9]; 5 min): 5.9 Log10 CFU/mL; Viable counts, Staphylococcus aureus time kill study ([9]; time 0): 6.33 Log10 CFU/mL |
| CCCCCCCCCCCCOC(=O)[C@H](C)N(C)C.Cl [Nex-57, L-Dodecyl 2-(dimethylamino)propanoate hydrochloride] | 1.57 | 3130 µg/mL | 3130 µg/mL | 3130 µg/mL | 6250 µg/mL | 6250 µg/mL | 6250 µg/mL | >12500 µg/mL | >12500 µg/mL | >12500 µg/mL | 3130 µg/mL | 3130 µg/mL | 3130 µg/mL | >12500 µg/mL | >12500 µg/mL | >12500 µg/mL | <4.0 Log10 CFU/mL | <3.70 Log10 CFU/mL | <3.52 Log10 CFU/mL | 5.78 Log10 CFU/mL | Viable counts, Pseudomonas aeruginosa time kill study ([8]; 0.5 min): <4.0 Log10 CFU/mL; Viable counts, Pseudomonas aeruginosa time kill study ([8]; 1 min): <3.70 Log10 CFU/mL; Viable counts, Pseudomonas aeruginosa time kill study ([8]; 5 min): <3.52 Log10 CFU/mL; Viable counts, Pseudomonas aeruginosa time kill study ([8]; time 0): 5.45 Log10 CFU/mL; Viable counts, Staphylococcus aureus time kill study ([9]; 0.5 min): 6.17 Log10 CFU/mL; Viable counts, Staphylococcus aureus time kill study ([9]; 1 min): 6.19 Log10 CFU/mL; Viable counts, Staphylococcus aureus time kill study ([9]; 5 min): 5.92 Log10 CFU/mL; Viable counts, Staphylococcus aureus time kill study ([9]; time 0): 6.29 Log10 CFU/mL |
